Earlier results on 2 molecules are cited in patent US20140056863A1, “NUTRITIONAL COMPOSITIONS HAVING ALPHA-HICA AND EICOSAPENTAENOIC ACID” (Nestec S.A., priority 2011, published 2014).

Each structure is given as a SMILES string.

Series [1] relates to malnourished aged animals.
Series [2] relates to intestinal mammalian target of rapamycin (mTOR). Particulars: piglet stressed with LPS; leading to increased protein synthesis and anti-inflammatory responses.

Regarding `NC(=O)NCCC[C@H](N)C(=O)O` [Citrulline, citrulline], the anabolic effect result in series [1] is given as “anabolic effect”.
As for `O=C(O)CCC(=O)C(=O)O` [AKG, α-ketoglutarate], in series [2], the “phosphorylation of intestinal mTOR” value is listed as “increased phosphorylation”.
